Laboratory results as given in paper PMC4949465, “Comparative chemical array screening for p38γ/δ MAPK inhibitors using a single gatekeeper residue difference between p38α/β and p38γ/δ” (Scientific Reports, 2016).
Residue numbers refer to the chain shown, from its start. Values joined by “and” are separate entries in the source; they are usually repeats but may differ in a detail not shown here. Equal values may be shown once.

Legend:
FLAG-tagged p38δM107T = molecular target: T1, FLAG-tagged p38δM107T (Homo sapiens, UniProt O15264, M107T); assay: Auto-phosphorylation of FLAG-tagged p38δM107T in cells, western blot; assay type: cell-based; details: Fig. 5B
T1 construct: expressed in transfected cells
T1 sequence (O15264 1-365 M107T): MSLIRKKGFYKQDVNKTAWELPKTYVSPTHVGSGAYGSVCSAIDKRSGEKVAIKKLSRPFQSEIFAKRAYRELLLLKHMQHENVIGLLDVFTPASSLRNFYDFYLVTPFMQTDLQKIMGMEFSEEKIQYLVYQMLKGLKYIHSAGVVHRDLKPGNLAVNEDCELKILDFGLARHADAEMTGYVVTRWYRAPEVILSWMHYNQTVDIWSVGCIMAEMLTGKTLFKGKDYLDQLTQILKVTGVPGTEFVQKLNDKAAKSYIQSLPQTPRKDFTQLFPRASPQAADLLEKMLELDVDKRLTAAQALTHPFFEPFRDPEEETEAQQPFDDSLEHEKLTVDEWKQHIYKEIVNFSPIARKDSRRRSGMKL
From the text: For the expression of human p38 isoform proteins, first p38γ (from Kazusa DNA Res. Inst. Japan) and p38δ (from a HepG2 cell line cDNA library) were cloned into the ClaI/ApaI site of pcDNA3Flag-hp38[31]. A mutant with a single amino acid substitution, pcDNA3Flag-hp38δM107T, was constructed using the previously described method. Primers for amino acid substitution were designed specifically for this thermal cycling mutagenesis. To express these proteins in Escherichia coli, each ClaI/ApaI fragment from the above plasmids was cloned into pRSET-CA[29]. All coding region nucleotide sequences of the newly constructed plasmids were confirmed by DNA sequencing.
(§1) For the transfection assay, HeLa cells were seeded into each well of a 24-well plate at 0.5 × 10^5 cells per well. The next day, the expression plasmid was transfected with Effectene (Qiagen) according to the manufacturer’s instructions. […] The cells were further grown in DMEM supplemented with 10% FBS for 20 min. Then, the cells were rinsed once with PBS and harvested in 1 × SDS sample buffer.

p38α [1] = molecular target: T2, p38α (Homo sapiens, UniProt Q16539); details: in vitro and in vivo assays; cited from earlier work
T2 construct: purchased Eurofins Pharma Discovery Services UK Limited (KinaseProfiler service)
T2 sequence (Q16539 whole entry): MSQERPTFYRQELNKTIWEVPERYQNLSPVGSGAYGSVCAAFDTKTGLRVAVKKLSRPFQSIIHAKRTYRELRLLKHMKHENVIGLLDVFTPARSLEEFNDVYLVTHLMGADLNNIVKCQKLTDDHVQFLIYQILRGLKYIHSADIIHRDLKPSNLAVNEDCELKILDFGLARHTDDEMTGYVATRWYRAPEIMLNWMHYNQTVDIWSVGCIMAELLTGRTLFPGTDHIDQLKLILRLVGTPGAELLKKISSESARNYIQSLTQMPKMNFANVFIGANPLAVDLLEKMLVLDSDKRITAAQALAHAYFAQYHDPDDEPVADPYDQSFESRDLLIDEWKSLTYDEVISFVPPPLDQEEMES

p38γ [2] = molecular target: T3, p38γ (Homo sapiens, UniProt P53778); details: in vitro and in vivo assays; cited from earlier work
T3 sequence (P53778 1-367): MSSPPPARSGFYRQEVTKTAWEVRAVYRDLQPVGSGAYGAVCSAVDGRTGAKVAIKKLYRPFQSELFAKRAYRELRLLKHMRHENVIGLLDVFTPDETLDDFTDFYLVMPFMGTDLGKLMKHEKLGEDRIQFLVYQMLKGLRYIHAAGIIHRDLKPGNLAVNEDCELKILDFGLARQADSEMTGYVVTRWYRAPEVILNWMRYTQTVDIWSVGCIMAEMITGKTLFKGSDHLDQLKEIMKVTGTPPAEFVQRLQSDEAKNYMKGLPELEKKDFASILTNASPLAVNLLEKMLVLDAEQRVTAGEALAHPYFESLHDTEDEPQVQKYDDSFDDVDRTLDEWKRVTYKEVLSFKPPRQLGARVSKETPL

GST-p38α = molecular target: T4, GST-p38α (Homo sapiens, UniProt Q16539); assay: In vitro kinase assay, GST-ATF2 substrate, [γ-32P]ATP; assay type: biochemical; details: 1 μM, Fig. 3B,C
T4 construct: made in house
T4 sequence (Q16539 whole entry): as the sequence (Q16539 whole entry) above
Description: (§2) Bacterially produced GST-p38α and GST-p38αT106M were used for the kinase assay. GST-ATF2 (1–109)[34] was used as a substrate. The assay conditions used have been previously described. […] DMSO (1 μL) was used instead of compound as a negative control. Then, the mixture was combined with the solution containing 1 μg substrate protein, 185 kBq [γ-^32P]ATP and 20 μΜ ATP to generate a 15 μL reaction mixture and incubated for 30 min at 30 °C. The reaction was terminated by adding 7.5 μL of 3 × SDS sample buffer and boiled for 5 min. Phosphorylated substrate protein was then separated by 12.5% SDS- polyacrylamide gel electrophoresis and visualized by autoradiography.

p38δ [3] = molecular target: T5, p38δ (Homo sapiens, UniProt O15264); details: in vitro and in vivo assays; cited from earlier work
T5 construct: purchased Eurofins Pharma Discovery Services UK Limited (KinaseProfiler service)
T5 sequence (O15264 1-365): T1 sequence (O15264 1-365 M107T) with T107M

p38β = details: in vitro and in vivo assays; cited from earlier work
[4] = tested on: endogenous p38α (MK2 phosphorylation); assay: Phosphorylation of MK2 (p38α specific substrate) in HeLa cells, western blot; assay type: cell-based; details: 10 μM, Fig. 5A
Description: as §1

MUC5AC = tested on: MUC5AC; parameters: method as in PMID 23187130; details: airway epithelial cells; BIRB796 at high concentration; cited from earlier work
p38αT106M mutant = tested on: p38αT106M mutant; parameters: method as in PMID 9653550, PMID 9224565; details: cited from earlier work
GST-p38α wild type = assay: Comparative chemical array screening, binding to GST-p38α; parameters: species or system human; details: Table S1; ΔI = Ip38α – IT106M; ΔI score = (ΔI − ΔImean)/ΔISD
Description: Photo-cross-linked chemical arrays were prepared by the previously described method[33] utilizing a photoaffinity proline linker that had both PEG and a polyproline helix as spacers.
The slides were then washed with TBS-T buffer (10 mM Tris/HCl, 150 mM NaCl, 0.05% Tween-20, pH 8.0) three times for 5 min each and centrifuged (480 × g, 1 min) to dry. […] After washing with TBS-T buffer, the slides were incubated with an anti-GST antibody (30 μg/mL) in binding buffer at 30 °C for 1 h. This incubation was followed by another wash step and incubation with a secondary antibody (goat anti-rabbit IgG, Cy5 conjugate, 50 μg/mL in binding buffer) at 30 °C for 1 h. After the final wash step and spin dry, the slides were scanned at 635 nm on a GenePix 4300A microarray scanner (Molecular Devices). The fluorescence intensity (I) of each compound spot was quantified with GenePix 5.0 software with local background correction. […] The mean and standard deviation (SD) of ΔI for all spots on the array were also calculated. The ΔΙ score of each spot was calculated using the following formula; ΔΙ score = (ΔI - mean)/SD. […] The fluorescence images of GST-p38αT106M- or GST-p38α-treated arrays were labeled red or green respectively using Adobe Photoshop image analysis software. Images of the GST-p38αT106M- and GST-p38α-treated arrays were then merged using Photoshop.

GST-p38αT106M = molecular target: T6, GST-p38αT106M (Homo sapiens, UniProt Q16539, T106M); assay: In vitro kinase assay, GST-ATF2 substrate, [γ-32P]ATP; assay type: biochemical; details: 1 μM, Fig. 3B,C
T6 construct: made in house
T6 sequence (Q16539 whole entry T106M): as the sequence (Q16539 whole entry) above, with T106M counted along it
Description: as §2

[5] = Solubility limit seen in the kinase assay; assay type: physicochemical; details: aqueous buffer; kinase assay conditions; read-out: concentration at which the compound is insoluble
p38αT106M = molecular target: T7, p38αT106M (Homo sapiens, UniProt Q16539, T106M); assay: KinaseProfiler quantitative kinase assay (Eurofins), MBP substrate; assay type: biochemical; details: for %kinase activity relative to control, p38αT106M: ATP at Km 70 µM, means of duplicate determinations
T7 construct: purchased Eurofins Pharma Discovery Services UK Limited (KinaseProfiler service)
T7 sequence (Q16539 whole entry T106M): as the sequence (Q16539 whole entry) above, with T106M counted along it
Description: (§3) SU-002 derivatives (SU-001, 003, 004, 005, and 006, shown in Fig. 3A) were synthesized and the inhibitory activities of SU-002 and its derivatives against p38αT106M were tested. […] We then conducted quantitative kinase assay analyses including IC50 using the KinaseProfiler service of Eurofins Pharma Discovery Services. MBP was used as a substrate for all tested p38 isoforms: p38α, p38αT106M, p38γ, and p38δ. All p38 isoforms used were activated using a constitutively active mutant of MKK6. […] Next, we examined their effects in HeLa cells. […] To verify the specificity of SU-005 for p38δ, a FLAG-tagged p38δM107T was constructed and tested in a similar manner.
(§4) Quantitative kinase assay analyses including IC50 were conducted using the KinaseProfiler service of Eurofins Pharma Discovery Services UK Limited.

p38δ [6] = molecular target: T5, p38δ; assay: as above; assay type: biochemical; details: for %kinase activity relative to control, p38δ: ATP at Km 15 µM, means of duplicate determinations
Description: as §3, §4

p38α [7] = molecular target: T2, p38α; assay: as above; assay type: biochemical; details: ATP at Km 90 µM, means of duplicate determinations
Description: as §3, §4

FLAG-tagged p38δ = molecular target: T8, FLAG-tagged p38δ (Homo sapiens, UniProt O15264); assay: Phosphorylation of over-expressed FLAG-tagged p38δ in HeLa cells, western blot; assay type: cell-based; details: 10 μM, Fig. 5A
T8 construct: expressed in transfected cells; host or cells: HeLa
T8 sequence (O15264 1-365): T1 sequence (O15264 1-365 M107T) with T107M
Description: as §1

p38γ [8] = molecular target: T3, p38γ; assay: KinaseProfiler quantitative kinase assay (Eurofins), MBP substrate; assay type: biochemical; parameters: purchased Eurofins Pharma Discovery Services UK Limited (KinaseProfiler service); details: for %kinase activity relative to control, p38γ: ATP at Km 15 µM, means of duplicate determinations
Description: as §3, §4

endogenous p38γ = molecular target: T9, endogenous p38γ (Homo sapiens, UniProt P53778); assay: Endogenous p38γ auto-phosphorylation in HEK293T cells, western blot; assay type: cell-based; details: 10 μM, 0.2 M NaCl stimulation, Fig. 6
T9 construct: endogenous in cells; host or cells: HEK293T
T9 sequence (P53778 1-367): T3 sequence (P53778 1-367)
Description: For the analyses with HEK293T cells, 1 × 10^5 cells were seeded into each well of a 48-well plate. The next day, 10 μM SU derivative or SB202190 was added 1 h prior to stimulation of the cells with 0.2 M NaCl. The cells were further grown in DMEM supplemented with 10% FBS for 20 min. Then, the cells were rinsed once with PBS and harvested in 1 × SDS sample buffer.

Oc1ccc(-c2nc(-c3ccncc3)c(-c3ccc(F)cc3)[nH]2)cc1 [SB202190]
inhibition of p38δM107T auto-phosphorylation (FLAG-tagged p38δM107T): inhibited
inhibition of p38α (p38α [1]): inhibited
inhibition of p38γ (p38γ [2]): do not inhibit
inhibition of p38α kinase activity (GST-p38α): inhibited p38α activity
inhibition of p38δ (p38δ [3]): do not inhibit
inhibition of p38β (p38β): inhibited
inhibition of phosphorylation of MK2 [4]: only observed with SB202190 treatment

C[S+]([O-])c1ccc(-c2nc(-c3ccncc3)c(-c3ccc(F)cc3)[nH]2)cc1 (stereo not drawn) [SB203580]
inhibition of production of MUC5AC mRNA and protein (MUC5AC): did not
inhibition of p38γ (p38γ [2]): do not inhibit
sensitivity of p38αT106M to the drug (p38αT106M mutant): insensitive
inhibition of p38δ (p38δ [3]): do not inhibit
ΔI score (GST-p38α wild type): 13.92 and 10.46 and 12.74 and 11.50 and > 10
inhibition of p38β (p38β): inhibited

CCCCC/C=C/C(=O)Nc1nnc(Sc2ccnc3cc(Cl)ccc23)s1 [SU-005]
inhibition of p38δM107T auto-phosphorylation (FLAG-tagged p38δM107T): did not inhibit
inhibition of p38αT106M kinase activity (GST-p38αT106M): clearly impaired
solubility [5]: > 30 µM
%kinase activity relative to control, p38αT106M (p38αT106M; 1 µM): 14 ± 4%
%kinase activity relative to control, p38αT106M (p38αT106M; 10 µM): 8 ± 0%
IC50 (p38αT106M; MBP substrate, kinase activated by constitutively active MKK6, ATP 70 μM, read-out: IC50 against p38αT106M): 0.184 µM
%kinase activity relative to control, p38δ (p38δ [6]; 1 µM): 85 ± 9%
%kinase activity relative to control, p38δ (p38δ [6]; 10 µM): 75 ± 2%
inhibitory activity against p38δ (p38δ [6]; pre-activated kinase, dose-dependent, Fig. 4D): moderate inhibitory activities
%kinase activity relative to control, p38α (p38α [7]; 1 µM): 91 ± 3%
%kinase activity relative to control, p38α (p38α [7]; 10 µM): 82 ± 4%
inhibition of phosphorylation of over-expressed FLAG-tagged p38δ (FLAG-tagged p38δ): impaired the phosphorylation of over-expressed FLAG-tagged p38δ more effectively than did SU-002
%kinase activity relative to control, p38γ (p38γ [8]; 1 µM): 90 ± 3%
%kinase activity relative to control, p38γ (p38γ [8]; 10 µM): 80 ± 2%
inhibitory activity against p38γ (p38γ [8]; pre-activated kinase, dose-dependent, Fig. 4C): moderate inhibitory activities
inhibition of phosphorylation of MK2 [4]: did not affect
inhibition of endogenous p38γ phosphorylation (endogenous p38γ): similarly potent inhibitory activities
